How the values were obtained:
Assay in all cases: relative viability (nuclei count vs DMSO), 5 days (fraction); higher = more cells survive
Pazopanib + Pictilisib = compound: Cc1ccc(Nc2nccc(N(C)c3ccc4c(C)n(C)nc4c3)n2)cc1S(N)(=O)=O [Pazopanib] + CS(=O)(=O)N1CCN(Cc2cc3nc(-c4cccc5[nH]ncc45)nc(N4CCOCC4)c3s2)CC1 [Pictilisib] (partner 1 µM)
In short: (§1)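 Dosing by pin tool came one day after lung cancer cell lines were seeded in 1536-well plates, using either one drug or a fixed anchor-drug dose plus five library-drug doses (not always all listed) in √10 steps. After 5 days, nuclei were counted on 4× images. Relative viability is treated-well nuclei count divided by vehicle-well nuclei count, and values are medians of duplicate plates.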

Ponatinib + Luminespib = compound: Cc1ccc(C(=O)Nc2ccc(CN3CCN(C)CC3)c(C(F)(F)F)c2)cc1C#Cc1cnc2cccnn12 [Ponatinib] + CCNC(=O)c1noc(-c2cc(C(C)C)c(O)cc2O)c1-c1ccc(CN2CCOCC2)cc1 [Luminespib] (partner 0.01 µM)
In short: as §1

Ponatinib + Trametinib = compound: Cc1ccc(C(=O)Nc2ccc(CN3CCN(C)CC3)c(C(F)(F)F)c2)cc1C#Cc1cnc2cccnn12 [Ponatinib] + CC(=O)Nc1cccc(-n2c(=O)n(C3CC3)c(=O)c3c(Nc4ccc(I)cc4F)n(C)c(=O)c(C)c32)c1 [Trametinib] (partner 0.02 µM)
In short: as §1

Pazopanib + Olaparib = compound: Cc1ccc(Nc2nccc(N(C)c3ccc4c(C)n(C)nc4c3)n2)cc1S(N)(=O)=O [Pazopanib] + O=C(c1cc(Cc2n[nH]c(=O)c3ccccc23)ccc1F)N1CCN(C(=O)C2CC2)CC1 [Olaparib] (partner 8 µM)
In short: as §1

Cell Line	relative viability (Pazopanib + Pictilisib; first compound 0.01 µM)	relative viability (Pazopanib + Pictilisib; first compound 0.03162 µM)	relative viability (Pazopanib + Pictilisib; first compound 0.1 µM)	relative viability (Pazopanib + Pictilisib; first compound 0.3162 µM)	relative viability (Pazopanib + Pictilisib; first compound 1 µM)	relative viability (Ponatinib + Luminespib; first compound 0.002 µM)	relative viability (Ponatinib + Luminespib; first compound 0.006325 µM)	relative viability (Ponatinib + Luminespib; first compound 0.06325 µM)	relative viability (Ponatinib + Luminespib; first compound 0.2 µM)	relative viability (Ponatinib + Trametinib; first compound 0.002 µM)	relative viability (Ponatinib + Trametinib; first compound 0.006325 µM)	relative viability (Ponatinib + Trametinib; first compound 0.06325 µM)	relative viability (Ponatinib + Trametinib; first compound 0.2 µM)	relative viability (Pazopanib + Olaparib; first compound 0.01 µM)	relative viability (Pazopanib + Olaparib; first compound 0.03162 µM)	relative viability (Pazopanib + Olaparib; first compound 0.1 µM)	relative viability (Pazopanib + Olaparib; first compound 0.3162 µM)	relative viability (Pazopanib + Olaparib; first compound 1 µM)
NCI-H460	0.275	0.339	0.345	0.429	0.407	0.0243	0.0378	0.0319	0.0324	0.192	0.128	0.268	0.1	0.51	0.413	0.572	0.406	0.409
NCI-H520	–	0.302	0.335	0.278	0.254	0.207	0.209	0.19	0.223	0.597	0.623	0.435	0.285	0.38	0.277	0.414	0.348	0.285
NCI-H596	0.383	0.379	0.417	0.381	0.39	1.06	1.07	1.01	0.686	0.783	0.812	0.825	0.642	0.674	0.661	0.676	0.749	0.629
NCI-H647	0.319	0.532	–	0.542	0.508	0.136	0.225	0.158	0.234	0.399	0.5	0.458	0.296	0.717	0.714	0.803	0.486	0.474
NCI-H650	0.789	0.838	0.92	0.836	0.79	0.807	0.783	0.958	0.775	0.929	0.962	0.949	0.83	0.404	0.411	0.394	0.391	0.37
NCI-H661	0.353	0.417	0.366	0.376	0.446	0.916	0.903	0.898	0.927	0.544	0.556	0.524	0.453	0.781	0.782	0.792	0.691	0.71
NCI-H727	0.356	0.244	0.497	0.393	0.483	0.321	0.444	0.516	0.261	0.415	0.388	0.398	0.37	0.672	–	0.595	0.612	0.629
NCI-H838	0.382	0.476	0.497	0.564	0.589	0.324	0.324	0.298	0.3	0.461	0.554	0.529	0.424	0.745	0.843	0.776	0.816	0.82
NCI-H1355	–	0.412	0.421	0.508	0.638	0.688	0.667	0.874	0.709	0.378	0.429	0.464	0.47	0.716	0.708	0.76	0.761	0.754
NCI-H1395	0.534	0.746	0.685	0.661	0.674	0.644	0.601	0.829	0.637	0.905	1.01	0.976	0.78	0.428	0.44	0.461	0.446	0.473
NCI-H1437	0.343	0.449	0.441	0.499	0.626	1.18	1.09	1.25	1.09	0.413	0.496	0.741	0.613	0.644	0.645	0.649	0.653	0.551
NCI-H1650	0.54	0.696	0.529	0.611	0.661	0.255	0.236	0.2	0.186	0.583	0.543	0.801	0.474	0.895	0.838	0.723	0.852	0.844
NCI-H1651	0.456	0.542	0.494	0.611	0.684	0.986	0.864	0.915	1.05	0.825	0.827	0.918	0.809	0.18	0.192	0.176	0.202	0.188
NCI-H1666	0.369	0.307	0.379	0.421	0.426	1.02	0.998	1.09	0.986	0.83	0.786	0.827	0.777	0.819	0.874	0.74	0.649	0.769
NCI-H1734	0.385	0.448	0.437	0.53	0.461	0.195	0.181	0.186	0.173	0.63	0.658	0.527	0.505	0.626	0.627	0.578	0.598	0.591
NCI-H1755	0.368	0.432	0.386	0.458	0.446	0.249	0.696	0.561	0.359	0.755	0.841	0.761	0.763	0.798	0.837	0.866	0.882	0.944
NCI-H1792	–	0.271	0.276	0.282	0.309	0.354	0.422	0.465	0.389	0.312	0.546	0.54	0.403	–	0.384	0.435	0.483	0.384
NCI-H1793	–	0.361	0.355	0.392	0.36	0.479	0.212	0.147	0.184	0.395	0.511	0.344	0.347	–	0.8	1.03	0.906	1.05
